Experiment: Storage stability of aqueous adjuvant formulations: clear isotropic single-phase solution after 24 hours at the temperature of interest
Format: physicochemical
Parameters: key: Pass: Samples which were found to be clear isotropic solutions after 24 hours were classified as a pass; Fail: all other results were classed as a fail
From the text: For the purposes of the present invention we define a stable formulation of adjuvant in water as one where the mixture forms a homogeneous or single phase liquid. The liquid may be a micellar solution however it will appear isotropic to the naked eye. […] This stability allows the design of products with shelf lives potentially running to several years. […]

## COCc1cnc(C2=NC(C)(C(C)C)C(=O)N2)c(C(=O)O)c1 (stereo not drawn) [Imazamox, imazamox]
20 °C, Plurafac=0, water=40.5, imazamox=4.5, Tween 20=50, PG=5 % w/w
  Result: Pass
20 °C, Plurafac=0, water=45, imazamox=5, Tween 20=50 % w/w
  Result: Pass
20 °C, Plurafac=0, water=64.8, imazamox=7.2, Tween 20=20, PG=8 % w/w
  Result: Pass
20 °C, Plurafac=0, water=72, imazamox=8, Tween 20=20 % w/w
  Result: Pass
20 °C, Plurafac=0, water=72.9, imazamox=8.1, Tween 20=10, PG=9 % w/w
  Result: Pass
20 °C, Plurafac=0, water=81, imazamox=9, Tween 20=10 % w/w
  Result: Pass
50 °C, Plurafac=0, water=40.5, imazamox=4.5, Tween 20=50, PG=5 % w/w
  Result: Pass
50 °C, Plurafac=0, water=45, imazamox=5, Tween 20=50 % w/w
  Result: Pass
50 °C, Plurafac=0, water=64.8, imazamox=7.2, Tween 20=20, PG=8 % w/w
  Result: Pass
50 °C, Plurafac=0, water=72, imazamox=8, Tween 20=20 % w/w
  Result: Pass
50 °C, Plurafac=0, water=72.9, imazamox=8.1, Tween 20=10, PG=9 % w/w
  Result: Pass
50 °C, Plurafac=0, water=81, imazamox=9, Tween 20=10 % w/w
  Result: Pass
-5 °C, Plurafac=0, water=40.5, imazamox=4.5, Tween 20=50, PG=5 % w/w
  Result: Fail
-5 °C, Plurafac=0, water=45, imazamox=5, Tween 20=50 % w/w
  Result: Fail
-5 °C, Plurafac=0, water=64.8, imazamox=7.2, Tween 20=20, PG=8 % w/w
  Result: Pass
-5 °C, Plurafac=0, water=72, imazamox=8, Tween 20=20 % w/w
  Result: Pass
-5 °C, Plurafac=0, water=72.9, imazamox=8.1, Tween 20=10, PG=9 % w/w
  Result: Pass
-5 °C, Plurafac=0, water=81, imazamox=9, Tween 20=10 % w/w
  Result: Pass
-10 °C, Plurafac=0, water=40.5, imazamox=4.5, Tween 20=50, PG=5 % w/w
  Result: Fail
-10 °C, Plurafac=0, water=45, imazamox=5, Tween 20=50 % w/w
  Result: Fail
-10 °C, Plurafac=0, water=64.8, imazamox=7.2, Tween 20=20, PG=8 % w/w
  Result: Pass
-10 °C, Plurafac=0, water=72, imazamox=8, Tween 20=20 % w/w
  Result: Pass
-10 °C, Plurafac=0, water=72.9, imazamox=8.1, Tween 20=10, PG=9 % w/w
  Result: Pass
-10 °C, Plurafac=0, water=81, imazamox=9, Tween 20=10 % w/w
  Result: Pass

From patent US12446574B2, “Adjuvants for agrochemical formulations” (SYNGENTA CROP PROTECTION AG, priority 2016, dated 2025)
